# Data as given in US20150306081A1, “Chemotherapy for Drug-Resistant Cancer Cells” (THE UNIVERSITY OF SYDNEY, priority 2012, published 2015).
# Where two headings read alike, the source gives them in different places.
# Experiments:
# [1] = system: Pgp expressing 2008/P200A cells; experiment: MTT proliferation assay, 2008/P200A cells; assay type: cell-based; conditions: for change of cytotoxicity in presence of Pgp inhibitors Val or Ela: 2008/P200A cells, Val 1 μM, Ela 0.1 μM; for sensitivity of 2008/P200A cells compared to 2008 cells: 72 h
# Description: (§1) The 2008 ovarian carcinoma cell line and the PAC-resistant 2008/P200A cell line (grown in 200 ng/mL of PAC) were kindly provided by Dr. John Allen (Centenary Institute, Sydney, Australia). Cells were grown in Dulbecco's modified Eagle's medium (DMEM; Life Technologies) with 10% (v/v) fetal calf serum (Sigma-Aldrich, St. Louis, Mo.) and supplemented with the following additions from Life Technologies: 1% (v/v) sodium pyruvate, 1% (v/v) non-essential amino acids, 100 U/mL penicillin, 100 μg/mL streptomycin, 2 mM L-glutamine and 0.28 μg/mL fungizone. The cells were then incubated at 37° C. in a humidified atmosphere of 5% CO2 and 95% air.
# (§2) The effect of anti-cancer agents on cellular proliferation was examined using the MTT [3-(4,5-dimethylthiazol-2-yl)-2,5-diphenyl tetrazolium] method. In this assay, 3×10^3 cells/well were seeded in 96-well plates in 100 μL of media. The next day, serially diluted drugs of interest were added. […] The cells were incubated at 37° C. in a humidified atmosphere containing 5% CO2 and 95% air for 72 h. After this incubation, 10 μL of MIT (5 mg/mL) was added to each well and the incubation continued at 37° C. for 2 h. After solubilization of the cells with 100 μL of 10% SDS-50% isobutanol in 10 mM HCl, the plates were read at 570 nm using a scanning multi-well spectrophotometer (Victor™ Multilabel Counter plate reader; Perkin Elmer, Australia). Results were analyzed to calculate the concentration of chelator or complex necessary to reduce the absorbance to 50% (IC50) of the control.
# [2] = system: Pgp-expressing KBV1 cells; experiment: Uptake of radio-labeled drug, KBV1 cells; assay type: cell-based, Human; conditions: for effect of Pgp inhibitors Val and Ela on uptake: KBV1 cells, Val 1 μM or Ela 0.1 μM pre-incubation, versus control
# Description: Cells were then washed on ice three times with ice-cold PBS and collected for analysis. Drug uptake was calculated as the number of drug molecules/cell. […] For studies using lysosomotropic agents, cells were pre-incubated with NH4Cl (5 mM), CLQ (100 μM) or MA (100 μM) for 30 min/37° C. prior to ^14C-Dp44mT uptake. […] For efflux assays, the same labeling procedure was conducted as in the uptake assay. […] After this procedure, the overlying media was removed using a Pasteur pipette and then placed in a counting vial. The cells were removed from the plate in 1 mL of PBS and then dispensed into a separate counting vial.
# [3] = system: non-Pgp expressing 2008 cells; experiment: MTT proliferation assay, 2008 cells; assay type: cell-based; conditions: for change of cytotoxicity in presence of Pgp inhibitors Val or Ela: 2008 cells, Val 1 μM, Ela 0.1 μM; for sensitivity of 2008 cells: compared to 2008/P200A cells
# Description: as §1, §2
# [4] = system: non-Pgp expressing KB31 cells; experiment: Uptake of radio-labeled drug, KB31 cells; assay type: cell-based, Human; conditions: Val 1 μM or Ela 0.1 μM pre-incubation, versus control
# Description: For the uptake assay, each 35 mm culture dish containing 5×10^5 cells was incubated with ^14C-doxorubicin, ^3H-vinblastine or ^14C-Dp44mT (all at 1 μCi) for 30 min/37° C. Cells were then washed on ice three times with ice-cold PBS and collected for analysis. Drug uptake was calculated as the number of drug molecules/cell. […] For studies using lysosomotropic agents, cells were pre-incubated with NH4Cl (5 mM), CLQ (100 μM) or MA (100 μM) for 30 min/37° C. prior to ^14C-Dp44mT uptake. […] For efflux assays, the same labeling procedure was conducted as in the uptake assay. […] After this procedure, the overlying media was removed using a Pasteur pipette and then placed in a counting vial. The cells were removed from the plate in 1 mL of PBS and then dispensed into a separate counting vial. The radiolabeled-drug efflux was calculated as a percentage of the total drug uptake by the cells found at zero time.
# [5] = system: Pgp-expressing KBV1 cells; experiment: MTT proliferation assay, KBV1 cells; assay type: cell-based, Human; conditions: for IC50: Homo sapiens, KB-V1, 72 h incubation; for IC50 / change of cytotoxicity in presence of Pgp inhibitors Val or Ela: KBV1 cells; for change of cytotoxicity in presence of Pgp inhibitors Val or Ela: Val 1 μM, Ela 0.1 μM, 72 h; for increase in resistance of KBV1 cells compared to KB31 cells: ratio of IC50, 72 h
# [6] = system: non-Pgp expressing KB31 cells; experiment: MTT proliferation assay, KB31 cells; assay type: cell-based, Human; conditions: for IC50: Homo sapiens, KB 3-1, 72 h incubation; for change of cytotoxicity in presence of Pgp inhibitors Val or Ela: Val 1 μM, Ela 0.1 μM, 72 h
# [7] = target: T1, Pgp (Homo sapiens, UniProt P08183); experiment: Pgp-ATPase activity assay (Pgp-Glo)
# Description: The ATPase activities of Pgp were determined using Pgp-enriched membranes and a luminescent ATP detection kit (Pgp-Glo Assay Kit, Promega, USA) according to the manufacturer's instructions. Briefly, Pgp membranes (0.5 mg/mL) and Mg(II)-ATP (5 mM) were incubated in the absence or presence of sodium orthovanadate (100 μM) for 40 min/37° C. and ATP detected as a luciferase-generated luminescent signal. Basal Pgp-ATPase activities were determined as the difference between the ATP hydrolysis in the presence or absence of sodium orthovanadate. Verapamil-stimulated Pgp-ATPase activity was measured in the presence of the Pgp control substrate, verapamil (200 μM).
# Test substrates (Dp44mT and Bp4eT) of interest were dissolved in dimethyl sulfoxide. The final concentration of DMSO in the assay medium was less than 1%.
# The Pgp Glo™ ATPase assay (Promega, Madison, Wis.) was used to assess if Dp44mT and Bp4eT are substrates of Pgp. The ATPase assay measures the Pgp-mediated ATPase activity of Pgp by quantitating ATP consumption in the presence of the compounds of interest after incubation with purified membrane proteins containing high levels of Pgp. […] The basal ATPase activity of Pgp is compared to the ATPase activity stimulated or inhibited by the compounds of interest.
# [8] = system: Pgp-expressing cells; conditions: reported by others; cited from earlier work
# [9] = target: T1, Pgp; set-up: purchased Promega; conditions: reported by others, biochemical assays; cited from earlier work
# [10] = system: KBV1 cells; experiment: Lysosomal integrity, acridine orange flow cytometry, KBV1 cells; assay type: cell-based, Human; conditions: 30 min incubation
# Description: Lysotracker® red (Life Technologies) and acridine orange (Sigma-Aldrich) are dyes showing high specificity for lysosomes and were used to determine lysosomal membrane permeability (LMP). The Lysotracker® red was visually assessed by fluorescence microscopy utilizing a Zeiss Axio Observer.Z1 Fluorescence Microscope equipped with an AxioCam camera (Zeiss, Oberkochen, Germany) and acridine orange was quantified by flow cytometry (see below).
# Briefly, cells were incubated with Lysotracker® red (50 nM) for 15 min/37° C. or acridine orange (20 nM) for 15 min/37° C., washed on ice 3 times with ice-cold PBS and then incubated with Cu[Dp44mT] (25 μM) for 30 min/37° C. or Dp44mT alone (25 μM) for 30 min or 24 h/37° C.
# (§3) The dyes, Rh123 and acridine orange were detected with the FACS Canto flow cytometer (BD Biosciences) and 10,000 events were acquired for every sample. Data analysis was performed using FlowJo software, version 7.5.5 (Tree Star Inc., Ashland, OR).
# [11] = system: non-Pgp expressing KB31 cells; experiment: Rhodamine 123 accumulation assay, KB31 cells; assay type: cell-based, Human; conditions: increased concentrations
# Description: Cells were then harvested and resuspended in ice-cold PBS and kept on ice until flow cytometric analysis (see below).
# as §3
# [12] = Redox studies: oxidation of H2DCF, cell-free
# Description: These studies were conducted in an acetate buffer (150 mM; pH 5) containing cysteine (100 μM) to mimic lysosomal conditions. In these experiments, hydrogen peroxide (100 μM) was added to initiate ROS generation.
# [13] = system: KBV1 cells; experiment: MTT cytotoxicity after transient knockdown of Pgp (MDR1 siRNA) in KBV1 cells; assay type: cell-based, Human; conditions: Pgp siRNA vs. Scr siRNA, 72 h
# Description: as §2
# For all siRNA treatments against MDR1 (MDR1-siRNA; Cat #: 4123, Life Technologies), a siRNAlipofectamine mixture (50 nM MDR1 siRNA and 1/400 lipofectamine 2000) was added to the cells (at 30% confluency) and incubated for 72 h/37° C. prior to further experimentation. The effectiveness of Pgp knockdown was confirmed using western blot and also assessing DOX cytotoxicity via the MTT assay. As a control, scrambled siRNA (Scr siRNA; Life Technologies) was used at the same concentration as MDR1 siRNA.
# T1 sequence (P08183 whole entry): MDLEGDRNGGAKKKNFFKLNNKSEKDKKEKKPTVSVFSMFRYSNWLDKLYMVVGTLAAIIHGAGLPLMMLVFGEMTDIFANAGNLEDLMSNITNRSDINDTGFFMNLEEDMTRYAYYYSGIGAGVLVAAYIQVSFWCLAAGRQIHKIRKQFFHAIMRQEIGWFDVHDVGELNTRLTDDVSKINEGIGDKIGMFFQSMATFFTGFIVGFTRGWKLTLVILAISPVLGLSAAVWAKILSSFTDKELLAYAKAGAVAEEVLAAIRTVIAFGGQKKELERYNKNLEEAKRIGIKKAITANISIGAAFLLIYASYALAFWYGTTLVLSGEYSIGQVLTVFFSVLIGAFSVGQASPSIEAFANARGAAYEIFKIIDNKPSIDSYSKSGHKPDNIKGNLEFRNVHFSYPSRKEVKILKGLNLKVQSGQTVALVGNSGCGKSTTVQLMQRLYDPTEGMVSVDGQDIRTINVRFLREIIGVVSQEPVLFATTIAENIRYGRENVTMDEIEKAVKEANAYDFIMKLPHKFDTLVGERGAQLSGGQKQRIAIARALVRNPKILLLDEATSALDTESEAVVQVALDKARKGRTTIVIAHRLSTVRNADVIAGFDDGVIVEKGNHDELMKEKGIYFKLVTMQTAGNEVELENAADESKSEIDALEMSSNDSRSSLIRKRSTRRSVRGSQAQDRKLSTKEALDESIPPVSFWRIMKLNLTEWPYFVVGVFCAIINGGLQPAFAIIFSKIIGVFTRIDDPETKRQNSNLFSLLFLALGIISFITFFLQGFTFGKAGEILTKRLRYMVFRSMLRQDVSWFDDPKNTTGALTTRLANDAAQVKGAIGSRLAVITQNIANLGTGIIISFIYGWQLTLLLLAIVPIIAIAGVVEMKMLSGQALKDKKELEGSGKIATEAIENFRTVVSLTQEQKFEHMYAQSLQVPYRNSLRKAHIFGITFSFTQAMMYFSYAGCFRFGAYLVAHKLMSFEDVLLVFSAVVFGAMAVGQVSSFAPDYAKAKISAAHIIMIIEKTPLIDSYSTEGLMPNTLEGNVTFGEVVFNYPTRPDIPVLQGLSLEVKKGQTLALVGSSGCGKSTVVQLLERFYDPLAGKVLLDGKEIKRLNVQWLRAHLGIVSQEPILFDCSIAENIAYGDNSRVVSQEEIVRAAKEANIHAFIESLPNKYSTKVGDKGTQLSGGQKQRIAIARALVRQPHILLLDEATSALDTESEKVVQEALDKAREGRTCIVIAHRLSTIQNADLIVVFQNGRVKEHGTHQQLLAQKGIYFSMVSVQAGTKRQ
compound,measurement,setting,value
"CC[C@]1(O)C[C@@H]2CN(CCc3c([nH]c4ccccc34)[C@@](C(=O)OC)(c3cc4c(cc3OC)N(C)[C@H]3[C@@](O)(C(=O)OC)[C@H](OC(C)=O)[C@]5(CC)C=CCN6CC[C@]43[C@@H]65)C2)C1 [VBL, Vinblastine]",change of cytotoxicity in presence of Pgp inhibitors Val or Ela,[1],abrogated the resistance
same,sensitivity of 2008/P200A cells compared to 2008 cells,[1],significantly higher resistance
same,effect of Pgp inhibitors Val and Ela on uptake,[2],significantly (p<0.001) increased the uptake
same,change of cytotoxicity in presence of Pgp inhibitors Val or Ela,[3],did not significantly (p>0.05) affect the cytotoxicity
same,sensitivity of 2008 cells,[3],extremely sensitive
same,effect of Pgp inhibitors Val and Ela on uptake,[4],did not significantly alter radiolabel uptake
same,IC50,[5],29.7 ± 1.77 µM
same,change of cytotoxicity in presence of Pgp inhibitors Val or Ela,[5],markedly sensitized
same,increase in resistance of KBV1 cells compared to KB31 cells,[5],221 fold
same,IC50,[6],0.13 ± 0.004 µM
same,change of cytotoxicity in presence of Pgp inhibitors Val or Ela,[6],no significant (p>0.05) change in cytotoxicity
"CCNC(=S)NN=C(c1ccccc1)c1ccccn1 [Bp4eT, 2-benzoylpyridine-4-ethyl-3-thiosemicarbazone]",sensitivity of 2008/P200A cells compared to 2008 cells,[1],significantly (p<0.001) increased sensitivity
same,more cytotoxic in drug-resistant KBV1 cells compared to KB31 cells,[5],6.7 fold
same,Pgp-ATPase activity (in words),[7]; relative to basal activity,significant (p<0.001) stimulation of ATPase activity
"C/C=C/C[C@@H](C)C(=O)[C@H]1C(=O)N[C@@H](C(C)C)C(=O)N(C)CC(=O)N(C)[C@@H](CC(C)C)C(=O)N[C@@H](C(C)C)C(=O)N(C)[C@@H](CC(C)C)C(=O)N[C@@H](C)C(=O)N[C@H](C)C(=O)N(C)[C@@H](CC(C)C)C(=O)N(C)[C@@H](CC(C)C)C(=O)N(C)[C@@H](C(C)C)C(=O)N1C [Val, Valspodar]",decrease of ATPase activity relative to the basal control,"[7]; Pgp-enriched membranes, 40 min",5 fold
COc1ccc(NC(=S)N=Nc2c(O)[nH]c3c(Cl)cc(Cl)cc23)cc1 [NSC73306],cytotoxicity to Pgp-expressing cells compared to parent cells,[8],increased cytotoxicity to Pgp-expressing cells
same,direct interaction with Pgp,[9],no direct interaction
[Cl][Fe]([Cl])[Cl] [FeCl3],Pgp-ATPase activity (in words),[7],Neither FeCl3 nor CuCl2 significantly stimulated ATPase activity
same,lysosomal integrity (acridine orange),[10],did not compromise lysosomal integrity
"COc1cc2c(cc1OC)CN(CCc1ccc(NC(=O)c3cccc4c(=O)c5cccc(OC)c5[nH]c34)cc1)CC2 [Ela, Elacridar]",effect on Rh123 accumulation,[11],no significant effect on Rh123 accumulation
tetrathiolmolybdate [TM],effect on redox activity / ROS generation of Cu[Dp44mT],"[12]; 5 μM, acetate buffer pH 5",totally prevented
"COc1cccc2c1C(=O)c1c(O)c3c(c(O)c1C2=O)C[C@@](O)(C(=O)CO)C[C@@H]3O[C@H]1C[C@H](N)[C@H](O)[C@H](C)O1 [DOX, Doxorubicin]",change of cytotoxicity in presence of Pgp inhibitors Val or Ela,[1],abrogated the resistance
same,sensitivity of 2008/P200A cells compared to 2008 cells,[1],significantly higher resistance
same,effect of Pgp inhibitors Val and Ela on uptake,[2],significantly (p<0.001) increased the uptake
same,cellular accumulation in KBV1 cells relative to KB31 cells,"[2]; control groups, 1 μCi",significantly (p<0.001) less
same,change of cytotoxicity in presence of Pgp inhibitors Val or Ela,[3],did not significantly (p>0.05) affect the cytotoxicity
same,sensitivity of 2008 cells,[3],extremely sensitive
same,effect of Pgp inhibitors Val and Ela on uptake,[4],did not significantly alter radiolabel uptake
same,IC50,[5],96.4 ± 10.1 µM
same,change of cytotoxicity in presence of Pgp inhibitors Val or Ela,[5],markedly sensitized
same,increase in resistance of KBV1 cells compared to KB31 cells,[5],220 fold
same,IC50,[6],0.44 ± 0.003 µM
same,change of cytotoxicity in presence of Pgp inhibitors Val or Ela,[6],no significant (p>0.05) change in cytotoxicity
same,decrease of IC50 by knockdown of Pgp,[13],15 fold
"[Cl][Cu][Cl] [CuCl2, copper(II) chloride]",redox activity (H2DCF oxidation),"[12]; acetate buffer pH 5, cysteine, H2O2, over 12 min",no activity
same,Pgp-ATPase activity (in words),[7],Neither FeCl3 nor CuCl2 significantly stimulated ATPase activity
same,lysosomal integrity (acridine orange),[10],did not compromise lysosomal integrity
